Like-named read-outs stand apart in the source and are kept apart here.
Key:
[1] = Solubility of base dye in polystyrene; assay type: physicochemical; conditions: base dye measured to be soluble in polystyrene
[2] = result in words; cited from earlier work
[3] = From the text: Salts of lithium can have a variety of properties, including one or more of the following: many salts of lithium are very chemically reactive; others are extremely insoluble; some are not produced in high volume and are, therefore, expensive to use at high concentration; and others have elements with moderate to high atomic numbers, causing quenching of the scintillation light.
[4] = result in words; cited from earlier work; remark: listed apart in the source

Cc1cccc2ccccc12 [1-Methyl Naphthalene]
Solubility [1]: >1 mol/L

c1ccc(-c2cnc(-c3ccccc3)o2)cc1 [2,5 Diphenyloxazole]
Solubility [1]: >1.5 mol/L

Cc1ccc2ccccc2c1 [2-Methyl Naphthalene]
Solubility [1]: >1 mol/L

CN1CCN(C)C1=O [DMI, 1,3 Dimethyl 2-Imidazolidone]
Miscibility with water [2]: miscible

O=C([O-])c1ccccc1.[Li+] [Lithium Benzoate]
Percentage wt of Lithium in Solution H2O [3]: 2.40 % wt/wt

[Cl-].[Li+] [Lithium Chloride]
Solubility of Compound (wt %) DIM [3]: >15.0 wt % | Solubility of Compound (wt %) DMSO [3]: 10.20 wt % | Solubility of Compound (wt %) H2O [3]: 83.50 wt %

[Li+].[O-][Cl+3]([O-])([O-])[O-] [Lithium Perchlorate]
Percentage wt of Lithium in Solution DMSO ([3]; achievable lithium ions in DMSO): 2.05 % wt/wt | Percentage wt of Lithium in Solution H2O ([3]; achievable lithium ions in H2O): 3.70 % wt/wt | Solubility of Compound (wt %) DMSO ([3]; maximum solubility in DMSO): 31.50 wt % | Solubility of Compound (wt %) H2O ([3]; maximum solubility in H2O): 56.10 wt %

C=CN1CCCC1=O [N-Vinyl-2-Pyrrolidone]
Hygroscopic [4]: Yes

CN1CCCC1=O [NMP, Methylpyrrolidone]
Miscibility with water [2]: miscible

c1ccc2ccccc2c1 [Naphthalene]
Solubility [1]: >1 mol/L

Cc1ccc(C)cc1 [p-Xylene]
Solubility [1]: >1 mol/L

Cc1ccc(C)c(C)c1 [pseudocumene]
Solubility [1]: >1 mol/L
